The source of these data is ChEMBL document CHEMBL5390219, “Benzyl stapled modification and anticancer activity of antimicrobial peptide A4K14-Citropin 1.1” (Bioorg Med Chem Lett, 2023).

Calls of active or inactive are those of the source. No cut-off for these calls is given here.

Series [1] deals with MCF7. In words: Inhibition of cell migration in human MCF7 cells at 5 uM incubated for 36 hrs by crystal violet staining based microscopy analysis. The series is classed as functional.
Series [2] is described as follows: Stability of a compound in human serum assessed as half life at 91 mg/mL incubated for 0 to 144 hrs by HPLC-UV analysis. The series is classed as ADME, cell-free. To be noted: time 0-144 hrs.
Series [3] has as its system MCF7. In words: Anti-cancer activity against human MCF7 assessed as cell viability incubated for 48 hrs by CCK-8 assay. In kind it is functional, cell-based. To be noted: MCF7, 48 h. A general note: Tetrazolium assays rely on reduction of a dye to a coloured formazan, in cell work by metabolically active cells.
Series [4] relates to U-87 MG. In words: Anti-cancer activity against human U-87 MG assessed as cell viability incubated for 48 hrs by CCK-8 assay. In kind it is functional, cell-based, U-87MG ATCC.
The subject of series [5] is MCF7. In words: Induction of cell death in human MCF7 cells at 10 uM incubated for 24 hrs by calcein-AM/PI staining based analysis. The series is classed as functional.
The subject of series [6] is HCT-116. In words: Anti-cancer activity against human HCT-116 assessed as cell viability incubated for 48 hrs by CCK-8 assay. To be noted: HCT-116, 48 h. In kind it is functional, cell-based.
Series [7] relates to MCF7. In words: Induction of apoptosis in human MCF7 cells assessed as viable cells at 5 uM incubated for 24 hrs by Annexin V-FITC/PI staining based flow cytometry analysis (reference value: 93.51%). In kind it is functional. The note with it: read-out: Activity.
Series [8] relates to MCF7. In words: Induction of apoptosis in human MCF7 cells assessed as early apoptotic cells at 5 uM incubated for 24 hrs by Annexin V-FITC/PI staining based flow cytometry analysis (reference value: 1.01%). The series is classed as functional. (Flow cytometry measures light scatter and fluorescence of single cells or particles in a stream.)
The subject of series [9] is MCF7. In words: Induction of apoptosis in human MCF7 cells assessed as late apoptotic cells at 5 uM incubated for 24 hrs by Annexin V-FITC/PI staining based flow cytometry analysis (reference value: 3.54%). In kind it is functional.
Series [10] concerns MCF7. In words: Induction of apoptosis in human MCF7 cells assessed as necrotic cells at 5 uM incubated for 24 hrs by Annexin V-FITC/PI staining based flow cytometry analysis (reference value: 1.94%). In kind it is functional.

Consider Ac-GLFAVIKKVASVIKGL-NH2, for which, in series [1], the result was inactive. Also, in series [2], the half-life – broadly, the time in which the quantity being followed falls by half – at 91 mg/mL was 6.81 h. The IC50 (commonly the concentration needed to halve the response being measured) stood at 14 µM in series [3], 14.4 µM in series [4] and 16.2 µM in series [6]. Moreover, the result in series [5] was Active. In series [7], the viability at 5 µM turned out to be 77.5%. The Activity is given as 2.44% in series [8], 11.45% in series [9] and 8.31% in series [10].
